# Measurements: patent US9708251B2, “Unsaturated fatty alcohol alkoxylates from natural oil metathesis” (Stepan Company, priority 2012, dated 2017)
# What was measured:
# Format in all cases: physicochemical
# [1] = Emulsion stability testing of nonionic emulsifiers, Hallcomid solvent series; parameters: key: C = creamy; CO = creamy oil; O = oil; GC = gritty cream; NS = no separation; OC = oily cream; settings: Bifenthrin 240 g/L in Hallcomid M-8-10, 34 ppm water
# Method: (§1) Nonionic samples contain a low amount of water (<1%) and are prepared as emulsifiable concentrates with three pesticides using two different solvent systems. In the aromatic solvent series, the nonionic sample replaces Toximul® 8240 (castor oil ethoxylate, 36 POE, Stepan), and in the Hallcomid™ (N,N-dimethylcaprylamide/N,N-dimethylcapramide, Stepan) solvent series, the nonionic sample replaces Ninex® MT-630F.
# (§2) Hallcomid Solvent Series.
# (§3) Sample preparation: The surfactants are combined and stirred until homogeneous, with the nonionic sample melted if needed prior to combination. Controls 1-3 are made by using Ninex MT-630F in the amounts indicated instead of the nonionic sample.
# (§4) Emulsion Stability Testing
# (§5) A Mohr pipette is used to feed pesticide/surfactant concentrates to each cylinder.
# [2] = as above; parameters: key to 24 h separation, appearance / 1 h separation, appearance / 1 h separation, amount: C = creamy; CO = creamy oil; O = oil; GC = gritty cream; NS = no separation; OC = oily cream; key to Spon. (spontaneity): G = good; F = fair; P = poor
# Method: as §1, §2, §3, §4, §5
# [3] = Emulsion stability testing of nonionic emulsifiers, aromatic solvent series; parameters: key to 24 h separation, appearance / 1 h separation, appearance / 1 h separation, amount: C = creamy; CO = creamy oil; O = oil; GC = gritty cream; NS = no separation; OC = oily cream; key to Spon. (spontaneity): G = good; F = fair; P = poor
# Method: as §1
# Sample preparation: Ninate® 60E (calcium alkylbenzenesulfonate, Stepan) and the test sample are stirred until homogeneous. […] Controls 1-3 are made by using Toximul 8240 in the amounts indicated instead of the nonionic sample.
# Formulations: • 1. Bifenthrin, 240 g/L (2.99 g), Aromatic 100 (ExxonMobil, 8.05 g), Ninate 60E (0.38 g), and nonionic sample or Toximul 8240 (0.58 g). • 2. 2,4-D ester, 480 g/L (8.90 g), Exxsol® D-110 (ExxonMobil, 2.50 g), Ninate 60E (0.36 g), and nonionic sample or Toximul 8240 (0.24 g). • 3. Tebuconazole, 360 g/L (4.45 g), N-methyl-2-pyrrolidone (6.35 g), Ninate 60E (0.48 g), nonionic sample or Toximul 8240 (0.72 g).
# as §4, §5
# [4] = Surfactant phase behavior study (cross-polarized microscopy); settings: room temperature
# Method: Phase behavior is observed using an Olympus BH-2 cross-polarized microscope at 100-400× and room temperature (20° C. to 22° C.). The inventive monounsaturated alcohol ethoxylates are compared with their saturated analogs.
# Samples are prepared by diluting the most concentrated product gradually with deionized water. When the surfactant concentration approaches a phase transition, the concentration is varied at 2-4% intervals to estimate the phase boundary. The actives level reported in Table 4 for each phase boundary is within ±5% of the true boundary.
# Samples are loaded between a microscope slide and cover glass and are allowed to equilibrate before observation. Microscopic texture is analyzed and used to determine the phase. For some samples, an AR 2000 rheometer (TA Instruments) is used to measure viscosity at 25° C. to further verify phase behavior.
# [5] = 2,4-D diester 480 g/L in Hallcomid M-8-10, 34 ppm water
# [6] = 2,4-D diester 480 g/L in Hallcomid M-8-10, 1000 ppm water
# [7] = Bifenthrin 240 g/L in Hallcomid M-8-10, 34 ppm water
# [8] = Bifenthrin 240 g/L in Hallcomid M-8-10, 1000 ppm water
# [9] = Tebuconazole 360 g/L in Hallcomid M-8-10, 34 ppm water
# [10] = Tebuconazole 360 g/L in Hallcomid M-8-10, 1000 ppm water
# [11] = 2,4-D ester 480 g/L in Exxsol D-110, 34 ppm water
# [12] = 2,4-D ester 480 g/L in Exxsol D-110, 1000 ppm water
# [13] = Bifenthrin 240 g/L in Aromatic 100, 34 ppm water
# [14] = Bifenthrin 240 g/L in Aromatic 100, 1000 ppm water
# [15] = Tebuconazole 360 g/L in N-methyl-2-pyrrolidone, 34 ppm water
# [16] = Tebuconazole 360 g/L in N-methyl-2-pyrrolidone, 1000 ppm water
structure (smiles),measurement,setting,value
CCC=CCCCCCCCCOCCO (mixture of isomers) [A12-4],"24 h separation, amount",[1],NS
same,"1 h separation, amount",[2]; [5],6.2 mL
same,"1 h separation, appearance",[2]; [5],C
same,"24 h separation, amount",[2]; [5],8.8 mL
same,"24 h separation, appearance",[2]; [5],C
same,Spon. (spontaneity),[2]; [5],F
same,"1 h separation, amount",[2]; [6],6.9 mL
same,"1 h separation, appearance",[2]; [6],C
same,"24 h separation, amount",[2]; [6],8.6 mL
same,"24 h separation, appearance",[2]; [6],C
same,Spon. (spontaneity),[2]; [6],F
same,"1 h separation, amount",[2]; [7],NS
same,Spon. (spontaneity),[2]; [7],G
same,"1 h separation, amount",[2]; [8],11 mL
same,"1 h separation, appearance",[2]; [8],C
same,"24 h separation, amount",[2]; [8],"2 O, 3 CO"
same,Spon. (spontaneity),[2]; [8],F
same,"1 h separation, amount",[2]; [9],3.1 mL
same,"1 h separation, appearance",[2]; [9],C
same,"24 h separation, amount",[2]; [9],5.9 mL
same,"24 h separation, appearance",[2]; [9],C
same,Spon. (spontaneity),[2]; [9],F
same,"1 h separation, amount",[2]; [10],3.1 mL
same,"1 h separation, appearance",[2]; [10],C
same,"24 h separation, amount",[2]; [10],6 mL
same,"24 h separation, appearance",[2]; [10],C
same,Spon. (spontaneity),[2]; [10],F
same,"1 h separation, amount",[3]; [11],6 mL
same,"1 h separation, appearance",[3]; [11],C
same,"24 h separation, amount",[3]; [11],6.7 mL
same,"24 h separation, appearance",[3]; [11],C
same,Spon. (spontaneity),[3]; [11],P
same,"1 h separation, amount",[3]; [12],4.7 mL
same,"1 h separation, appearance",[3]; [12],O
same,"24 h separation, amount",[3]; [12],4.5 mL
same,"24 h separation, appearance",[3]; [12],O
same,Spon. (spontaneity),[3]; [12],P
same,"1 h separation, amount",[3]; [13],8 mL
same,"1 h separation, appearance",[3]; [13],C
same,Spon. (spontaneity),[3]; [13],P
same,"1 h separation, amount",[3]; [14],5.2 mL
same,"1 h separation, appearance",[3]; [14],O
same,"24 h separation, amount",[3]; [14],5.2 mL
same,"24 h separation, appearance",[3]; [14],O
same,Spon. (spontaneity),[3]; [14],P
same,"1 h separation, amount",[3]; [15],2.3 mL
same,"1 h separation, appearance",[3]; [15],C
same,"24 h separation, amount",[3]; [15],2.5 mL
same,"24 h separation, appearance",[3]; [15],GC
same,Spon. (spontaneity),[3]; [15],P
same,"1 h separation, amount",[3]; [16],2.3 mL
same,"1 h separation, appearance",[3]; [16],C
same,"24 h separation, amount",[3]; [16],2.7 mL
same,"24 h separation, appearance",[3]; [16],GC
same,Spon. (spontaneity),[3]; [16],P
CCC=CCCCCCCCCOCCOCCOCCO (mixture of isomers) [A12-7],"24 h separation, amount",[1],NS
same,"combined isotropic phases (clear and opaque), share of the total",[4],about 66%
same,Isotropic Clear phase region,[4]; in deionized water,74-100 % Actives Level
same,Isotropic Opaque phase region,[4]; in deionized water,0-40 % Actives Level
same,Lamellar phase region,[4]; in deionized water,40-74 % Actives Level
same,"1 h separation, amount",[2]; [5],6 mL
same,"1 h separation, appearance",[2]; [5],C
same,"24 h separation, amount",[2]; [5],10 mL
same,"24 h separation, appearance",[2]; [5],C
same,Spon. (spontaneity),[2]; [5],F
same,"1 h separation, amount",[2]; [6],6.7 mL
same,"1 h separation, appearance",[2]; [6],C
same,"24 h separation, amount",[2]; [6],8.2 mL
same,"24 h separation, appearance",[2]; [6],C
same,Spon. (spontaneity),[2]; [6],F
same,"1 h separation, amount",[2]; [7],NS
same,Spon. (spontaneity),[2]; [7],G
same,"1 h separation, amount",[2]; [8],10.2 mL
same,"1 h separation, appearance",[2]; [8],C
same,"24 h separation, amount",[2]; [8],"2 O, 3.5 CO"
same,Spon. (spontaneity),[2]; [8],F
same,"1 h separation, amount",[2]; [9],2 mL
same,"1 h separation, appearance",[2]; [9],C
same,"24 h separation, amount",[2]; [9],5.1 mL
same,"24 h separation, appearance",[2]; [9],C
same,Spon. (spontaneity),[2]; [9],F
same,"1 h separation, amount",[2]; [10],2.7 mL
same,"1 h separation, appearance",[2]; [10],C
same,"24 h separation, amount",[2]; [10],4.9 mL
same,"24 h separation, appearance",[2]; [10],C
same,Spon. (spontaneity),[2]; [10],F
same,"1 h separation, amount",[3]; [11],3.2 mL
same,"1 h separation, appearance",[3]; [11],C
same,"24 h separation, amount",[3]; [11],5.5 mL
same,"24 h separation, appearance",[3]; [11],C
same,Spon. (spontaneity),[3]; [11],P
same,"1 h separation, amount",[3]; [12],4.2 mL
same,"1 h separation, appearance",[3]; [12],O
same,"24 h separation, amount",[3]; [12],"0.8 O, 3.3 CO"
same,Spon. (spontaneity),[3]; [12],P
same,"1 h separation, amount",[3]; [13],8.8 mL
same,"1 h separation, appearance",[3]; [13],C
same,"24 h separation, amount",[3]; [13],6.8 mL
same,"24 h separation, appearance",[3]; [13],C
same,Spon. (spontaneity),[3]; [13],P
same,"1 h separation, amount",[3]; [14],4.5 mL
same,"1 h separation, appearance",[3]; [14],O
same,"24 h separation, amount",[3]; [14],4.9 mL
same,"24 h separation, appearance",[3]; [14],O
same,Spon. (spontaneity),[3]; [14],P
same,"1 h separation, amount",[3]; [15],2.3 mL
same,"1 h separation, appearance",[3]; [15],C
same,"24 h separation, amount",[3]; [15],3 mL
same,"24 h separation, appearance",[3]; [15],GC
same,Spon. (spontaneity),[3]; [15],P
same,"1 h separation, amount",[3]; [16],2.6 mL
same,"1 h separation, appearance",[3]; [16],C
same,"24 h separation, amount",[3]; [16],3.2 mL
same,"24 h separation, appearance",[3]; [16],GC
same,Spon. (spontaneity),[3]; [16],P
C=CCCCCCCCCOCCO [A10-4],"24 h separation, amount",[1],NS
same,"1 h separation, amount",[2]; [5],6 mL
same,"1 h separation, appearance",[2]; [5],C
same,"24 h separation, amount",[2]; [5],9.5 mL
same,"24 h separation, appearance",[2]; [5],C
same,Spon. (spontaneity),[2]; [5],F
same,"1 h separation, amount",[2]; [6],6.5 mL
same,"1 h separation, appearance",[2]; [6],C
same,"24 h separation, amount",[2]; [6],8 mL
same,"24 h separation, appearance",[2]; [6],C
same,Spon. (spontaneity),[2]; [6],F
same,"1 h separation, amount",[2]; [7],NS
same,Spon. (spontaneity),[2]; [7],F
same,"1 h separation, amount",[2]; [8],"Tr. GC, 12 C"
same,"24 h separation, amount",[2]; [8],"3.5 O, 3 CO"
same,Spon. (spontaneity),[2]; [8],F
same,"1 h separation, amount",[2]; [9],3 mL
same,"1 h separation, appearance",[2]; [9],C
same,"24 h separation, amount",[2]; [9],6.5 mL
same,"24 h separation, appearance",[2]; [9],C
same,Spon. (spontaneity),[2]; [9],F
same,"1 h separation, amount",[2]; [10],4 mL
same,"1 h separation, appearance",[2]; [10],C
same,"24 h separation, amount",[2]; [10],5.8 mL
same,"24 h separation, appearance",[2]; [10],C
same,Spon. (spontaneity),[2]; [10],F
same,"1 h separation, amount",[3]; [11],4.5 mL
same,"1 h separation, appearance",[3]; [11],CO
same,"24 h separation, amount",[3]; [11],"2 O, 1 CO, 2 C"
same,Spon. (spontaneity),[3]; [11],P
same,"1 h separation, amount",[3]; [12],3.8 mL
same,"1 h separation, appearance",[3]; [12],O
same,"24 h separation, amount",[3]; [12],4 mL
same,"24 h separation, appearance",[3]; [12],O
same,Spon. (spontaneity),[3]; [12],P
same,"1 h separation, amount",[3]; [13],7.5 mL
same,"1 h separation, appearance",[3]; [13],CO
same,"24 h separation, amount",[3]; [13],"3 O, 3 CO"
same,Spon. (spontaneity),[3]; [13],P
same,"1 h separation, amount",[3]; [14],6 mL
same,"1 h separation, appearance",[3]; [14],O
same,"24 h separation, amount",[3]; [14],6 mL
same,"24 h separation, appearance",[3]; [14],O
same,Spon. (spontaneity),[3]; [14],P
same,"1 h separation, amount",[3]; [15],2 mL
same,"1 h separation, appearance",[3]; [15],GC
same,"24 h separation, amount",[3]; [15],3 mL
same,"24 h separation, appearance",[3]; [15],GC
same,Spon. (spontaneity),[3]; [15],P
same,"1 h separation, amount",[3]; [16],3 mL
same,"1 h separation, appearance",[3]; [16],GC
same,"24 h separation, amount",[3]; [16],4 mL
same,"24 h separation, appearance",[3]; [16],GC
same,Spon. (spontaneity),[3]; [16],P
